Assay results reported in ChEMBL document CHEMBL3885881, “DrugMatrix”.

Species: Rattus norvegicus
Experiment: DrugMatrix - Regimen: Daily Repeat
Format: toxicity, organism-based, Sprague-Dawley
Parameters: regimen Daily Repeat, gender Male, age 6-8 weeks
Conditions: in vivo, po, route oral GAVAGE, vehicle .5 % CMC; for ABSOLUTE BASOPHIL / ABSOLUTE EOSINOPHIL / ABSOLUTE LYMPHOCYTE / ABSOLUTE MONOCYTE / ABSOLUTE SEGMENTED NEUTROPHIL / BASOPHIL / EOSINOPHIL / ERYTHROCYTE COUNT / HEMATOCRIT / HEMOGLOBIN / LEUKOCYTE COUNT / LYMPHOCYTE / MEAN CORPUSCULAR HEMOGLOBIN / MEAN CORPUSCULAR HEMOGLOBIN CONCENTRATION / MEAN CORPUSCULAR VOLUME / MONOCYTE / NEUTROPHIL / NUCLEATED RED BLOOD CELLS / PLATELET COUNT: tissue Blood; for ALANINE AMINOTRANSFERASE / ALBUMIN / ALKALINE PHOSPHATASE / ASPARTATE AMINOTRANSFERASE / BLOOD UREA NITROGEN / CARBON DIOXIDE / CHLORIDE / CHOLESTEROL / CREATINE PHOSPHOKINASE / CREATININE / GLUCOSE / LACTATE DEHYDROGENASE / LIPASE / PHOSPHORUS / POTASSIUM / SODIUM / TOTAL BILIRUBIN / TOTAL PROTEIN / URIC ACID: tissue Plasma
[1] = 1200 mg/kg, 120 h, dose level High, time 5 day
[2] = […], 72 h, dose 3.3 mg/Kg, dose level Low, time 3 day
[3] = […], 120 h, dose 3.3 mg/Kg, dose level Low, time 5 day

## CCC[C@@H]1C[C@@H](C(=O)N[C@@H]([C@H]2O[C@H](SC)[C@H](O)[C@@H](O)[C@H]2O)[C@@H](C)O)N(C)C1 [LINCOMYCIN]
[1]
  ABSOLUTE BASOPHIL: 0 CELLS/uL
  ABSOLUTE EOSINOPHIL: 0 CELLS/uL
  ABSOLUTE LYMPHOCYTE: 15154 CELLS/uL
  ABSOLUTE MONOCYTE: 0 CELLS/uL
  ABSOLUTE SEGMENTED NEUTROPHIL: 1379.33 CELLS/uL
  BASOPHIL: 0%
  EOSINOPHIL: 0%
  ERYTHROCYTE COUNT: 5.63 x10E6/uL
  HEMATOCRIT: 35.37%
  HEMOGLOBIN: 14.33 G/DL
  LEUKOCYTE COUNT: 16.53 x10E3/uL
  LYMPHOCYTE: 91.67%
  MEAN CORPUSCULAR HEMOGLOBIN: 25.5 pg
  MEAN CORPUSCULAR HEMOGLOBIN CONCENTRATION: 40.53 G/DL
  MEAN CORPUSCULAR VOLUME: 62.9 fL
  MONOCYTE: 0%
  NEUTROPHIL: 8.33%
  NUCLEATED RED BLOOD CELLS: 0 /100WBC
  PLATELET COUNT: 1331 x10E3/uL
  ALANINE AMINOTRANSFERASE: 58.33 u/L
  ALBUMIN: 4.13 G/DL
  ALKALINE PHOSPHATASE: 343.67 u/L
  ASPARTATE AMINOTRANSFERASE: 92.33 u/L
  BLOOD UREA NITROGEN: 18.33 mg/dL
  CARBON DIOXIDE: 25 mmol/L
  CHLORIDE: 100.67 MEQ/L
  CHOLESTEROL: 73.67 mg/dL
  CREATINE PHOSPHOKINASE: 558 u/L
  CREATININE: 0.27 mg/dL
  GLUCOSE: 137 mg/dL
  LACTATE DEHYDROGENASE: 505.33 u/L
  LIPASE: 12 u/L
  PHOSPHORUS: 12.77 mg/dL
  POTASSIUM: 6.92 MEQ/L
  SODIUM: 143.1 MEQ/L
  TOTAL BILIRUBIN: 0.17 mg/dL
  TOTAL PROTEIN: 6.1 G/DL
  URIC ACID: 1.63 mg/dL
[2]
  ABSOLUTE BASOPHIL: 0 CELLS/uL
  ABSOLUTE EOSINOPHIL: 46 CELLS/uL
  ABSOLUTE LYMPHOCYTE: 14091.33 CELLS/uL
  ABSOLUTE MONOCYTE: 108.67 CELLS/uL
  ABSOLUTE SEGMENTED NEUTROPHIL: 1220.67 CELLS/uL
  BASOPHIL: 0%
  EOSINOPHIL: 0.33%
  ERYTHROCYTE COUNT: 5.49 x10E6/uL
  HEMATOCRIT: 34.5%
  HEMOGLOBIN: 13.93 G/DL
  LEUKOCYTE COUNT: 15.47 x10E3/uL
  LYMPHOCYTE: 91%
  MEAN CORPUSCULAR HEMOGLOBIN: 25.43 pg
  MEAN CORPUSCULAR HEMOGLOBIN CONCENTRATION: 40.4 G/DL
  MEAN CORPUSCULAR VOLUME: 63 fL
  MONOCYTE: 0.67%
  NEUTROPHIL: 8%
  NUCLEATED RED BLOOD CELLS: 0 /100WBC
  PLATELET COUNT: 1331.67 x10E3/uL
  ALANINE AMINOTRANSFERASE: 53.67 u/L
  ALBUMIN: 4.23 G/DL
  ALKALINE PHOSPHATASE: 358.67 u/L
  ASPARTATE AMINOTRANSFERASE: 85.33 u/L
  BLOOD UREA NITROGEN: 15.67 mg/dL
  CARBON DIOXIDE: 29.67 mmol/L
  CHLORIDE: 101 MEQ/L
  CHOLESTEROL: 72 mg/dL
  CREATINE PHOSPHOKINASE: 274.33 u/L
  CREATININE: 0.21 mg/dL
  GLUCOSE: 154.67 mg/dL
  LACTATE DEHYDROGENASE: 216.67 u/L
  LIPASE: 9.67 u/L
  PHOSPHORUS: 12.97 mg/dL
  POTASSIUM: 7.32 MEQ/L
  SODIUM: 144.13 MEQ/L
  TOTAL BILIRUBIN: 0.2 mg/dL
  TOTAL PROTEIN: 5.83 G/DL
  URIC ACID: 2.13 mg/dL
[3]
  ABSOLUTE BASOPHIL: 0 CELLS/uL
  ABSOLUTE EOSINOPHIL: 0 CELLS/uL
  ABSOLUTE LYMPHOCYTE: 14059.67 CELLS/uL
  ABSOLUTE MONOCYTE: 0 CELLS/uL
  ABSOLUTE SEGMENTED NEUTROPHIL: 1173.67 CELLS/uL
  BASOPHIL: 0%
  EOSINOPHIL: 0%
  ERYTHROCYTE COUNT: 5.56 x10E6/uL
  HEMATOCRIT: 34.53%
  HEMOGLOBIN: 13.97 G/DL
  LEUKOCYTE COUNT: 15.23 x10E3/uL
  LYMPHOCYTE: 92.33%
  MEAN CORPUSCULAR HEMOGLOBIN: 25.1 pg
  MEAN CORPUSCULAR HEMOGLOBIN CONCENTRATION: 40.43 G/DL
  MEAN CORPUSCULAR VOLUME: 62.13 fL
  MONOCYTE: 0%
  NEUTROPHIL: 7.67%
  NUCLEATED RED BLOOD CELLS: 0 /100WBC
  PLATELET COUNT: 1194.33 x10E3/uL
  ALANINE AMINOTRANSFERASE: 57.33 u/L
  ALBUMIN: 4.37 G/DL
  ALKALINE PHOSPHATASE: 326 u/L
  ASPARTATE AMINOTRANSFERASE: 107.67 u/L
  BLOOD UREA NITROGEN: 17 mg/dL
  CARBON DIOXIDE: 28 mmol/L
  CHLORIDE: 100.33 MEQ/L
  CHOLESTEROL: 76.67 mg/dL
  CREATINE PHOSPHOKINASE: 786.33 u/L
  CREATININE: 0.23 mg/dL
  GLUCOSE: 160.67 mg/dL
  LACTATE DEHYDROGENASE: 134.33 u/L
  LIPASE: 9 u/L
  PHOSPHORUS: 12.5 mg/dL
  POTASSIUM: 6.98 MEQ/L
  SODIUM: 144.77 MEQ/L
  TOTAL BILIRUBIN: 0.17 mg/dL
  TOTAL PROTEIN: 6.33 G/DL
  URIC ACID: 2.3 mg/dL
